The results in this text go back to patent US5202242A, “A83543 compounds and processes for production thereof” (DowElanco, priority 1991, dated 1993).

Data set [1] deals with Southern Corn Rootworm. Put plainly: Mite/insect screen: Southern Corn Rootworm (SCRW). In kind it is in vivo, Diabrotica undecimpunctata howardi. As to conditions: 264 h, 11 day. The method, then:
(§1) The formula 1A compounds were tested for miticidal and insecticidal activity in the following mite/insect screen. Each test compound was formulated by dissolving the compound in an acetone-alcohol (1:1) mixture containing 23 g of TOXIMUL R (sulfonate/nonionic emulsifier blend) and 13 g of TOXIMUL S (sulfonate/nonionic emulsifier blend) per liter. These mixtures were then diluted with water to give the indicated concentrations.
(§2) Two-spotted spider mites and cotton aphids were introduced on squash cotyledons and allowed to establish on both leaf surfaces. The leaves were then sprayed with 5 ml of test solutions using a DeVilbiss atomizing sprayer at 10 psi. Both surfaces of the leaves were covered until run off and then allowed to dry for one hour. After standard exposure periods percent mortality was evaluated. Additional insects were evaluated using similar formulations and evaluation procedures.

Data set [2] deals with German Cockroach. Put plainly: Mite/insect screen: German Cockroach (GECR). In kind it is in vivo. The conditions noted are these: Blattella germanica. The method, then: as §1, §2
The subject of data set [3] is Rootknot Nematode. Description: Mite/insect screen: Rootknot Nematode (NEM). It is filed as in vivo, Meliiodyne spp. As to conditions: 264 h, 11 day. The method, then:
as §1, §2

Data set [4] deals with Beet Armyworm. Description: Mite/insect screen: Beet Armyworm (BAW). It is filed as in vivo, Spodoptera exiqua. The conditions noted are these: Spodoptera exigua, 144 h, 6 day. The method, then: as §1, §2
Data set [5] deals with Blowfly Larvae. Put plainly: In vitro activity against blowfly larvae. As to conditions: 5 ppm. It is filed as in vivo. The text has this: (§3) The formula 1A compounds are also active against members of the insect order Diptera. Tables VIII and IX summarize the in vitro studies of the formula 1A compounds against blowfly larvae and adult stable fly.
In data set [6] the test system is Neonate Tobacco Budworm. Put plainly: LD50 against neonate tobacco budworm (petri dish assay). It is filed as in vivo. The conditions noted are these: Heliothis virescens; neonate larvae; mortality evaluated at 24 and 48 hours; mean of two tests. The method, then: The formula 1A compounds were evaluated in the following assay to determine the LD50 against neonate tobacco budworm (Heliothis virescens). A petri dish (100 mm×20 mm) is inverted and the lid lined with a #1 qualitative filter paper. Ten neonate larvae are placed in each dish and a 1 ml test solution is pipetted onto the insects. The petri dish bottom is then placed on the lid to contain the larvae. At 1 hr. after treatment, a small piece of Heliothis diet (modified shurry, Southland Products, Lake Village, AR) is added to each dish. The mortality is evaluated at 24 and 48 hours. Each test is run in triplicate.

Data set [7] has as its system Two-spotted Spider Mite. Description: Mite/insect screen: Two-spotted Spider Mite (TSSM). It is filed as in vivo. The conditions noted are these: Tetranychus urticae, 4-5 day. The method, then: as §1, §2
Data set [8] deals with Tobacco Budworm. Description: Mite/insect screen: Tobacco Budworm (TBW). It is filed as in vivo. The conditions noted are these: Heliothis virescens, 144 h, 6 day. The method, then:
as §1, §2

The subject of data set [9] is Adult Stablefly. Put plainly: In vitro activity against adult stable fly. It is filed as in vivo. As to conditions: Stomoxys calcitrans.
Excerpt: as §3

Data set [10] deals with Aster Leafhopper. Put plainly: Mite/insect screen: Aster Leafhopper (ALH). It is filed as in vivo. As to conditions: Macrosteles fascifrons, 24 hr. The method, then:
as §1, §2

Data set [11] has as its system Cotton Aphid. Description: Mite/insect screen: Cotton Aphid (CA). In kind it is in vivo, Aphis gossypii Glover. As to conditions: Aphis gossypii, 4-5 day. The method, then:
as §1, §2

Setting [12] is: 24 hr, read-out: % mortality 24 hr.
Where [13] appears, read: 48 hr, read-out: % mortality 48 hr.

Values after ≈ are worked out from the molar mass of the structure shown. Where two headings read alike, the source gives them in different places.

`CCC1CCCC(OC2CCC(N(C)C)C(C)O2)C(C)C(=O)C2=CC3C(C=C(C)C4CC(OC5OC(C)C(OC)C(O)C5OC)CC43)C2CC(=O)O1` (stereo not shown) [Compound A83543L]: the inhibition at 200 ppm is 0% in data set [1]; 40% in data set [2] (168 h, 7 day); 100% in data set [2] (504 h, 21 day); 0% in [3]; 100% in data set [4]; 0% in data set [7]. In addition, the inhibition at 200 ppm in data set [8] worked out at 100%; in [10] it was 100%; in data set [11], 0%. Besides, the inhibition at 400 ppm in [1] is 0%; in [2] (168 h, 7 day), 0%; in data set [2] (504 h, 21 day), 100%; in data set [3], 0%; in [4], 100%; in data set [7], 0%. Besides, the values for the inhibition at 400 ppm in data set [8], in data set [10] and in data set [11] were 100%, 100% and 0%, respectively. Besides, the “% mortality” value in data set [5] is listed as 90%. The compound also came in with a median lethal concentration (LC50) in data set [6] of 26 µg/mL (≈ 35.5 µM). Further, the mortality at 5 ppm in data set [9] (setting [12]) worked out at 70%; in [9] (setting [13]) it was 100%.
For `CCC1CCCC(OC2CCC(NC)C(C)O2)C(C)C(=O)C2=CC3C(C=CC4CC(OC5OC(C)C(OC)C(O)C5OC)CC43)C2CC(=O)O1` (stereo not shown) [Compound A83543M], the inhibition at 200 ppm in data set [1] amounted to 0%; in data set [2] (168 h, 7 day), 0%; in [2] (504 h, 21 day) it was 20%; in [3], 0%; in data set [4] it was 0%; in [7] it was 0%. In addition, the results for the inhibition at 200 ppm in [8], in data set [10] and in data set [11] were 70%, 60% and 0%, respectively. In addition, the inhibition at 400 ppm in data set [1] stood at 0%; in data set [2] (168 h, 7 day), 0%; in data set [2] (504 h, 21 day) it was 40%; in [3], 0%; in [4] it was 0%; in data set [7] it was 0%. For the same compound, the inhibition at 400 ppm is 100% in data set [8], 100% in data set [10] and 0% in data set [11]. This compound came in with an LC50 in data set [6] of 22.6 µg/mL (≈ 32.1 µM). For the same compound, the values for the mortality at 5 ppm in data set [9] (setting [12]) and in data set [9] (setting [13]) were 60% and 100%, respectively.
In the case of `CCC1CCCC(OC2CCC(NC)C(C)O2)C(C)C(=O)C2=CC3C(C=C(C)C4CC(OC5OC(C)C(OC)C(O)C5OC)CC43)C2CC(=O)O1` (stereo not shown) [Compound A83543N], the inhibition at 200 ppm in [1] was determined as 0%; in data set [2] (168 h, 7 day), 0%; in [2] (504 h, 21 day), 0%; in data set [3] it was 0%; in data set [4], 90%; in data set [7], 0%. The results for the inhibition at 200 ppm in [8], in data set [10] and in data set [11] were 100%, 100% and 0%, respectively. In addition, the inhibition at 400 ppm in data set [1] turned out to be 0%; in data set [2] (168 h, 7 day) it was 0%; in data set [2] (504 h, 21 day), 0%; in data set [3], 0%; in data set [4] it was 100%; in [7], 0%. In addition, the inhibition at 400 ppm in data set [8] was 100%; in data set [10], 100%; in data set [11], 0%. The median lethal concentration (LC50) in data set [6] was determined as 40 µg/mL (≈ 55.7 µM). Further, the mortality at 5 ppm in [9] (setting [12]) is 20%; in [9] (setting [13]), 90%.

Usually inhibition stands for the relative decrease from the control value, in per cent. By LC50 is commonly meant the concentration that kills 50% of the test population. Usually mortality stands for the percentage killed.
